Experimental data as given in patent US8178523B2, “Compounds for the treatment of hepatitis C” (Bristol-Myers Squibb Company, priority 2008, dated 2012).

Assays:
[1] = test system: HCV replicon cells; experiment: HCV replicon FRET / luciferase assay; format: cell-based; conditions: Hepatitis C virus, 50% reduction in FRET or luciferase activity, numeric values
Method: FRET Assay Preparation. The HCV FRET screening assay was performed in 96-well cell culture plates. The FRET peptide (Anaspec, Inc.) (Taliani et al., Anal. Biochem. 1996, 240, 60-67) contains a fluorescence donor, EDANS, near one end of the peptide and an acceptor, DABCYL, near the other end. The fluorescence of the peptide is quenched by […] resonance energy transfer (RET) between the donor and the acceptor, but as the NS3 protease cleaves the peptide the products are released from RET quenching and the fluorescence of the donor becomes apparent. The assay reagent was made as follows: 5× cell Luciferase cell culture lysis reagent from Promega (#E153A) diluted to 1× with dH2O, NaCl added to 150 mM final, the FRET peptide diluted to 20 μM final from a 2 mM stock.
To prepare plates, HCV replicon cells, with or without a Renilla luciferase reporter gene, were trypsinized and plated in a 96-well plate with titrated test compounds added in columns 3 through 12; columns 1 and 2 contained a control compound (HCV control inhibitor), and the bottom row contained cells with DMSO only. The plates were then placed in a CO2 incubator at 37° C.
Assays. Subsequent to addition of the test compounds described above (FRET Assay Preparation), at various times the plate was removed and Alamar blue solution (Trek Diagnostics, #00-100) was added to measure cellular toxicity. After reading in a Cytoflour 4000 instrument (PE Biosystems), plates were rinsed with PBS and then used for FRET assay by the addition of 30 ul of the FRET peptide assay reagent described above (FRET Assay Preparation) per well. The plate was then placed into the Cytoflour 4000 instrument which had been set to 340 excite/490 emission, automatic mode for up to 20 cycles and the plate read in a kinetic mode. Typically, the signal to noise using an endpoint analysis after the reads was at least three-fold. Alternatively, after Alamar blue reading, plates were rinsed with PBS, then used for luciferase assay using the Promega Dual-Glo Luciferase Assay System or the Promega EnduRen Live Cell Substrate assay.
Compound analysis was performed by quantification of the relative HCV replicon inhibition and the relative cytotoxicity values. To calculate cytoxicity values, the average Alamar Blue fluorescence signals from the control wells were set as 100% non-toxic. The individual signals in each of the compound test wells were then divided by the average control signal and multiplied by 100% to determine […]. To calculate the HCV replicon inhibition values, an average background value was obtained from the two wells containing the highest amount of HCV control inhibitor at the end of the assay period. These numbers were similar to those obtained from naïve Huh-7 cells. The background numbers were then subtracted from the average signal obtained from the control wells and this number was used as 100% activity. The individual signals in each of the compound test wells were then divided by the averaged control values after background subtraction and multiplied by 100% to determine percent activity. EC50 values were calculated as the concentration which caused a 50% reduction in FRET or luciferase activity. The two numbers generated for the compound plate, percent cytoxicity and percent activity, were used to determine compounds of interest for further analysis.

[2] = target: T1, HCV NS5B RdRp (Hepatitis C virus genotype 1b, UniProt Q9WMX2); experiment: HCV NS5B RdRp enzyme assay; format: biochemical; conditions: HCV NS5B genotype 1b; standard or modified RdRp assay not given; numeric values
T1 construct: The protein was expressed with an 18 amino acid C-terminal truncation to enhance the solubility; made in house; host or cells: E. coli BL21(DE3)
T1 sequence (Q9WMX2 2420-2992): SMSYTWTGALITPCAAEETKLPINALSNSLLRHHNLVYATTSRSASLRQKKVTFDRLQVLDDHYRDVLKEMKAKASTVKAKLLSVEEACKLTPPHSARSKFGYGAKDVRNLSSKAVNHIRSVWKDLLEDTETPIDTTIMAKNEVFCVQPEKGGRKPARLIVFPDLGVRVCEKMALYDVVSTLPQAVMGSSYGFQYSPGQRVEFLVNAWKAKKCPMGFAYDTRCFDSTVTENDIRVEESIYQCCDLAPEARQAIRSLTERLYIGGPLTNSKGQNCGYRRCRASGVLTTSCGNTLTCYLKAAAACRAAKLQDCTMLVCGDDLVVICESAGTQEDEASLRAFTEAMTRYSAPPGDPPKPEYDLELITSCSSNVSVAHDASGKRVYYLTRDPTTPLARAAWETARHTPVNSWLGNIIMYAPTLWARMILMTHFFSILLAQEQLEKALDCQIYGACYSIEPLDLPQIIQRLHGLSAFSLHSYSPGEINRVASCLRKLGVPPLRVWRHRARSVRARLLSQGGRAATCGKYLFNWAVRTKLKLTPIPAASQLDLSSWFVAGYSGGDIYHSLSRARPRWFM
Method: HCV NS5B RdRp cloning, expression, and purification. The cDNA encoding the NS5B protein of HCV, genotype 1b, was cloned into the pET21a expression vector. The protein was expressed with an 18 amino acid C-terminal truncation to enhance the solubility. The E. coli competent cell line BL21(DE3) was used for expression of the protein. Cultures were grown at 37° C. for ˜4 hours until the cultures reached an optical density of 2.0 at 600 nm. The cultures were cooled to 20° C. and induced with 1 mM […]. Fresh ampicillin was added to a final concentration of 50 μg/ml and the cells were grown overnight at 20° C.
Cell pellets (3 L) were lysed for purification to yield 15-24 mgs of purified NS5B. The lysis buffer consisted of 20 mM Tris-HCl, pH 7.4, 500 mM NaCl, 0.5% triton X-100, 1 mM DTT, 1 mM EDTA, 20% glycerol, 0.5 mg/ml lysozyme, 10 mM MgCl2, 15 ug/ml deoxyribonuclease I, and Complete TM protease inhibitor tablets (Roche). After addition of the lysis buffer, frozen cell pellets were resuspended using a tissue homogenizer. To reduce the viscosity of the sample, aliquots of the lysate were sonicated on ice using a microtip attached to a Branson sonicator. The sonicated lysate was centrifuged at 100,000×g for 1 hr at 4° C. and filtered through a 0.2 μm filter unit (Corning).
The protein was purified using two sequential chromatography steps: Heparin sepharose CL-6B and polyU sepharose 4B (Pharmacia). The chromatography buffers were identical to the lysis buffer but contained no lysozyme, deoxyribonuclease I, MgCl2 or protease inhibitor and the NaCl concentration of the buffer was adjusted according to the requirements for charging the protein onto the column. Each column was eluted with a NaCl gradient which varied in length from 5-50 column volumes depending on the column type. After the final chromatography step, the resulting purity of the enzyme is >90% based on SDS-PAGE analysis. The enzyme was aliquoted and stored at −80° C.
Standard HCV NS5B RdRp enzyme assay. HCV RdRp genotype 1b assays were run in a final volume of 60 μl in 96 well plates (Corning 3600). The assay buffer is composed of 20 mM Hepes, pH 7.5, 2.5 mM KCl, 2.5 mM MgCl2, 1 mM DTT, 1.6 U RNAse inhibitor (Promega N2515), 0.01 mg/ml BSA (Sigma B6917), and 2% glycerol. All compounds were serially diluted (3-fold) in DMSO and diluted further in water such that the final concentration of DMSO in the assay was 2%. HCV RdRp genotype 1b enzyme was used at a final concentration of 28 nM. A polyA template was used at 6 nM, and a biotinylated oligo-dT12 primer was used at 180 nM final concentration. Template was obtained commercially (Amersham 27-4110). Biotinylated primer was prepared by Sigma Genosys. 3H-UTP was used at (0.29 μM total UTP). Reactions were initiated by the addition of enzyme, incubated at 30° C. for 60 min, and stopped by adding 25 μl of 50 mM EDTA containing SPA beads (4 μg/μl, Amersham RPNQ 0007). Plates were read on a Packard Top Count NXT after >1 hr incubation at room temperature.
Modified HCV NS5B RdRp enzyme assay. A modified enzyme assay was performed essentially as described for the standard enzyme assay except for the following: The biotinylated oligo dT12 primer was precaptured on streptavidin-coated SPA beads by mixing primer and beads in assay buffer and incubating at room temperature for one hour. Unbound primer was removed after centrifugation. The primer-bound beads were resuspended in 20 mM Hepes buffer, pH 7.5 and used in the assay at final concentrations of 20 nM primer and […] beads. Order of addition in the assay: enzyme (1.75 nM) was added to diluted compound followed by the addition of a mixture of template (0.36 nM), 3H-UTP (0.6 μCi, 0.29 μM), and primer-bound beads, to initiate the reaction; concentrations given are final. Reactions were allowed to proceed for 4 hours at 30° C.
IC50 values for compounds were determined using seven different [I]. […]

| Structure (SMILES) | EC50 [1] | IC50 [2] |
| --- | --- | --- |
| COc1ccc2c(c1)C1CC1(C(=O)N1CCCCC1c1nccs1)Cn1c-2c(C2CCCCC2)c2ccc(C(=O)NS(=O)(=O)N(C)C)cc21 (stereo not drawn) | 290 nM | 70 nM |
| COc1ccc2c(c1)C=C(C(=O)N1CCCCC1c1nccs1)Cn1c-2c(C2CCCCC2)c2ccc(C(=O)NS(=O)(=O)N(C)C)cc21 (stereo not drawn) | 460 nM | 100 nM |
| COc1ccc2c(c1)[C@@H]1C[C@]1(C(=O)N1CCC(c3nnc(C)o3)CC1)Cn1c-2c(C2CCCCC2)c2ccc(C(=O)NS(=O)(=O)N(C)C)cc21 | 30 nM | 30 nM |
